Marks after values point to notes of the source that are not given here.
What was measured:
[1] = system: tobacco mosaic virus (TMV); test: Induction of resistance to tobacco mosaic virus in tobacco; format: in vivo; settings: for Effectiveness Covered (%) (decline in TMV lesions vs UTC, systemic response) / Effectiveness Uncovered (%) (decline in TMV lesions vs UTC, local response): TMV 3 days post-treatment, scored 3 days after inoculation; for TMV response / effectiveness against TMV infection (summary of Table 22): foliar spray
Soy plants = test: Growth tests after foliar spray, soy; format: in vivo; settings: for Dry biomass increase (%) / Fresh mass increase (%) / Growth increase (%): soy, 14 days
Experimental: Soy seeds (or corn seeds, as indicated) were planted in flats with 2 seeds per cell within the flat at a greenhouse facility. The seeds were allowed to germinate and the smaller plant is culled, leaving one plant per cell. Once the first true leaves are fully expanded and the second leaves are beginning to expand, the plants were initially measured for height. This was performed by stretching the highest leaf upward and measuring the distance to the soil. Peptides were dissolved in water at the indicated concentrations (Table 21 below). The plants were then treated with a foliar spray using widely available spray bottles until liquid was dripping from the leaves. Six flats of 14 plants each were treated per condition (peptide or control). Designated untreated control plants were sprayed with water. The plants were allowed to grow for 14 days. The height of the plants was again measured and compared to the original height to quantify growth. Finally, the plants were harvested by removing the shoots (all above-ground material). For some experiments, this was weighed upon harvesting to determine the fresh mass (including water weight). The shoots were then dried at 70° C. for 72 hours, and again weighed to determine dry biomass. Although this method uses a similar measure (growth) as in Example 3 above, the treatment method is different (seed soak vs. foliar spray). As a result, the experimental outcomes may diverge.

[2] = system: tobacco plants (leaf tissue discs); test: Peroxide response, ferric-xylenol orange assay on tobacco leaf discs; format: cell-based; settings: 0.5 ug/ml peptide, one hour, absorbance at 595 nm vs blank
Experimental: The ferric-xylenol orange complex assay for hydrogen peroxide (Gay et al., Analytical Biochemistry 273:149-55 (1999), which is hereby incorporated by reference in its entirety) was used to determine peroxide production by plant leaf tissue. Briefly, reagent A was prepared by mixing 10 mg of ferrous ammonium sulfate with 133 uL of sulfuric acid in a total volume of 1 mL with water. Reagent B was prepared by mixing 2 g of sorbitol with 9.34 mg of xylenol orange in 80 ml of water. 1M hydrochloric acid was slowly added until the solution turned yellow. The solution was then diluted with water to a total volume of 100 mL, and stored in a dark bottle at 4° C.
Leaves from either tobacco plants (plants grown to 6 true leaves) or soy plants (plants grown to 6 true leaves) were used for the assay. The leaf was first removed from the plant and placed on a paper towel. 0.5 cm leaf tissue circles were then removed from the leaf using a leather punch tool. These discs were then placed into the wells of a 96-well plate. […] of water was added to each disc. The plate was covered with parafilm and rested for 12 hours in the dark. The excess water was then removed and the wells washed with an additional 250 uL of water. The washes were then removed from the wells and replaced with 105 uL of a 0.5 ug/ml solution of peptide in water or water blank, generally in quadruplicate. Where peptide solubility was a problem, pH buffer was added to both the blank and peptide samples. Leaf discs were incubated with the peptides for one hour under fluorescent lighting. 50 ul of the solution from each leaf sample was removed to a new well for chemical analysis.
Just prior to analysis, reagents A and B were freshly mixed in a 1:100 ratio to produce the assay reagent. 200 ul of this mixture was added to each well containing 50 ul of leaf-treated solution. The plate was incubated in the dark for 20 minutes and the absorbance at 595 nm was detected. Results were analyzed using a two-tailed Student's T-test. The results were divided into several response classes. XR++ indicated a positive response with absorbance >0.05 units above the negative control and a Student's T-test p<0.05. XR+ indicated an absorbance <0.05 units above the blank and a Student's T-test p<0.05. XR weak indicated a response >0.02 units above the negative control with a p-value that was not significant. XR− indicated an absorbance within 0.02 units of the negative control. It should be noted that there can be significant biological variability in the peroxide response due to plant age, location of the disc within the leaf, and other factors. As a result, p-values from the T-test are a guide and not an absolute inclusion criterion.

soybean seeds = test: Root & shoot growth analysis after seed soak, soy; format: in vivo; settings: for Root (root growth index, percentage increase over untreated control) / Shoot (shoot length, percentage increase over untreated control): soy, 12-14 days
Experimental: Peptides were tested for biological effects on the allocation of growth resources to the shoot (above ground) and root (below ground). Peptides were dissolved at 0.2, 2, or 5 μg/ml in a total volume of 100 ml deionized water. Corn or soybean seeds were then soaked for one hour in the peptide solution. Untreated control (UTC) plants were soaked in deionized water. Clear plastic 300 ml beverage cups (Solo®, Dart Container Corporation) were prepared for planting by marking the bottom with a cross, dividing the bottom into four equal quadrants. The cups were then filled with Sunshine Mix #1 soil (SunGro Horticulture) sieved to ¼″. 100 ml of water was added to the soil. Treated seeds were then planted by pressing the seed lightly into the top of the soil. The seeds were then covered with an additional 50 ml of loose soil. Seeds were allowed to germinate and grow for 12-14 days.
The length of the shoot was measured as the distance from the soil to the lightly stretched tip of the highest leaf for each plant. […] Stunting was defined as lacking a fully expanded true leaf at time of data collection or having an expanded true leaf judged by eye to be <½ the average leaf area of the treatment group. Generally, 30 seeds were planted per treatment group and 15-25 plants were used for data collection.
Root growth was estimated by counting the number of times that a primary root crosses the quadrant marks on the bottom of the cup. These were often observed along the bottom circumference of the cup, although some were visible along the side of the container and were counted as if crossing a vertical extension of the quadrant line. This number was divided by 4 to produce a root growth index.
Each number indicates the percentage increase over the untreated control values.

SEEEEELEQLLEDLVKLL (P14-32)
Effectiveness Covered (%) (decline in TMV lesions vs UTC, systemic response) ([1]; spray 20 ug/ml): 82* % | Effectiveness Uncovered (%) (decline in TMV lesions vs UTC, local response) ([1]; spray 20 ug/ml): 90* % | growth, dry biomass and fresh mass (text summary of Table 21) (Soy plants; foliar spray): increases in growth and dry biomass | Dry biomass increase (%) (Soy plants; foliar spray 0.2 ug/ml): 6.8% | Fresh mass increase (%) (Soy plants; foliar spray 0.2 ug/ml): 2.9% | Growth increase (%) (Soy plants; foliar spray 0.2 ug/ml): 9.5% | Dry biomass increase (%) (Soy plants; foliar spray 2.0 ug/ml): 8.2% | Fresh mass increase (%) (Soy plants; foliar spray 2.0 ug/ml): 27.6% | Growth increase (%) (Soy plants; foliar spray 2.0 ug/ml): 1.7% | Dry biomass increase (%) (Soy plants; foliar spray 5.0 ug/ml): 14% | Fresh mass increase (%) (Soy plants; foliar spray 5.0 ug/ml): 33.3% | Growth increase (%) (Soy plants; foliar spray 5.0 ug/ml): 12.5%

SEEELQQLLKLFSEIL (P3-5)
Effectiveness Covered (%) (decline in TMV lesions vs UTC, systemic response) ([1]; spray 10 ug/ml): 94* % | Effectiveness Uncovered (%) (decline in TMV lesions vs UTC, local response) ([1]; spray 10 ug/ml): 66% | Peroxide Response, Tobacco [2]: Weak +

SQGISEKQLDQDLSQLIQALLQP (P4-14S-12D)
TMV response / effectiveness against TMV infection (summary of Table 22) [1]: produced the best results | Effectiveness Covered (%) (decline in TMV lesions vs UTC, systemic response) ([1]; spray 5.0 ug/ml): 60* % | Effectiveness Uncovered (%) (decline in TMV lesions vs UTC, local response) ([1]; spray 5.0 ug/ml): 61* % | Dry biomass increase (%) (Soy plants; foliar spray 5.0 ug/ml): −3.6% | Growth increase (%) (Soy plants; foliar spray 5.0 ug/ml): −4.2%

SQGISEKQLDQLDSQLIQALLQP (P4-14S-13D)
Peroxide Response, Tobacco [2]: Weak+

SQGISEKQLDQLFSQLIQALLQP (P4-14S-13F)
Peroxide Response, Tobacco [2]: Weak+

SQGISEKQLDQLLSQLIQASLQP (P4-14S-20S)
shoot growth (Table 20) (soybean seeds; seed soak, p14a soy at 0.2 μg/ml): increased shoot growth | Root (root growth index, percentage increase over untreated control) (soybean seeds; seed soak 5.0 μg/ml): 2.2% | Shoot (shoot length, percentage increase over untreated control) (soybean seeds; seed soak 5.0 μg/ml): 5.8%* | TMV response / effectiveness against TMV infection (summary of Table 22) [1]: weaker TMV responses | Effectiveness Covered (%) (decline in TMV lesions vs UTC, systemic response) ([1]; spray 10 ug/ml): −45% | Effectiveness Uncovered (%) (decline in TMV lesions vs UTC, local response) ([1]; spray 10 ug/ml): 59* %

SQGISEKQLDQLLSQSIQALLQP (P4-14S-16S)
root growth (text summary of Table 20) (soybean seeds; seed soak, listed as P4-14s-16s): strong shift in resource allocation to root growth | root growth (text summary of Table 20) (soybean seeds; seed soak, listed as p4-14s-16s): Increased root growth | Root (root growth index, percentage increase over untreated control) (soybean seeds; seed soak 0.2 μg/ml): 28.3% | Shoot (shoot length, percentage increase over untreated control) (soybean seeds; seed soak 0.2 μg/ml): −2.0% | Root (root growth index, percentage increase over untreated control) (soybean seeds; seed soak 2.0 μg/ml): 28.3%* | Shoot (shoot length, percentage increase over untreated control) (soybean seeds; seed soak 2.0 μg/ml): −11.3% | Effectiveness Covered (%) (decline in TMV lesions vs UTC, systemic response) ([1]; spray 10 ug/ml): 46% | Effectiveness Uncovered (%) (decline in TMV lesions vs UTC, local response) ([1]; spray 10 ug/ml): 72* %

SQGISEKQLDQLQSQLIQALLQP (P4-14S-13Q)
Effectiveness Covered (%) (decline in TMV lesions vs UTC, systemic response) ([1]; spray 10 ug/ml): 61* % | Effectiveness Uncovered (%) (decline in TMV lesions vs UTC, local response) ([1]; spray 10 ug/ml): 40% | Peroxide Response, Tobacco [2]: Weak+

SQGISEKQSDQLLSQLIQALLQP (P4-14S-9S)
Peroxide Response, Tobacco [2]: Weak+

— patent publication US10524472B2, “Elicitor peptides having disrupted hypersensitive response box and use thereof” (Plant Health Care, Inc., priority 2014, dated 2020)
